Laboratory results taken from paper PMC10257291, “Biological activities of extracts and compounds from Thai Kae-Lae (Maclura cochinchinensis (Lour.) Corner)” (BMC Complementary Medicine and Therapies, 2023).

How the values were obtained:
[1] = system: WT1 protein; set-up: method as in PMID 29274817; conditions: compounds from Mah-Lueang; cited from earlier work
[2] = system: red blood cells
Experimental: The whole blood samples were obtained from normal volunteers. Red blood cells were separated by centrifugation and washed 2 times with 0.9% NaCl. Then, 2% RBC suspension was incubated with crude fractional extracts and compounds at 37 °C for 30 min. Triton-X 100 (2%) and NaCl (0.9%) were positive and negative controls, respectively. Then, the supernatant was collected, and haemoglobin concentration was measured by spectrophotometry at 540 nm. The haemolysis induction was calculated using the following equation:5 %Haemolysisinduction=Absorbance of sample/Absorbance of positive contr×100

Row | Compound | decrease of WT1 protein in KG-1a cells [1] | Haemolysis (%) [2]
1 | CC(C)=C1C[C@H]2[C@@H](CC[C@]2(C)O)[C@](C)(O)CC1=O [zedoarondiol] | 95.52% | 
2 | Triton X100 [0.05% Triton X100] |  | 100%
3 | CC(C)=C1C[C@@H]2O[C@@]2(C)CC/C=C(\C)CC1=O [Germacrone-4,5-epoxide] | 92.22% | 
